PubChem BioAssay (NCI)
Values joined by “and” are separate entries in the source; they are usually repeats but may differ in a detail not shown here. Identical values can stand only once.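 Method: 48-hour compound exposure of cells in 96-well plates, five concentrations, linear interpolation of endpoints. Here, GI50 denotes the concentration required for 50% inhibition of growth. Definition used: TGI = concentration required for complete inhibition of growth.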

What was measured:
Assay in all cases: growth of human tumour cells (NCI), 48 h
[1] = system: SN12C renal
[2] = system: HOP-62 NSCLC
[3] = system: SNB-75 CNS
[4] = system: IGROV1 ovarian
[5] = system: SW-620 colon
[6] = system: A549 NSCLC
[7] = system: MOLT-4 leukemia
[8] = system: KM12 colon
[9] = system: NCI-H460 lung
[10] = system: HOP-92 NSCLC

| SMILES | TGI [1] | TGI [2] | TGI [3] | TGI [4] | TGI [5] | TGI [6] | TGI [7] | TGI [8] | TGI [9] | TGI [10] | GI50 [1] | GI50 [2] | GI50 [3] | GI50 [4] | GI50 [5] | GI50 [6] | GI50 [8] | GI50 [9] | GI50 [10] | GI50 [7] |
| --- | --- | --- | --- | --- | --- | --- | --- | --- | --- | --- | --- | --- | --- | --- | --- | --- | --- | --- | --- | --- |
| O=C(C1OC1c1ccc(Br)cc1O)C12CC3CC(CC(C3)C1)C2 (configuration not stated) | 30.1 µM | 67.9 µM | 58.1 µM | > 100 µM | 35.4 µM | > 100 µM | 66.7 µM | 41.4 µM | 85.2 µM | 48.8 µM |  |  |  |  |  |  |  |  |  |  |
| CC(=O)Oc1cccc2c1C(=O)CCCC2 | > 100 µM | > 100 µM | 4.78 µM | > 100 µM | > 100 µM | > 100 µM | > 100 µM | > 100 µM | > 100 µM |  |  |  |  |  |  |  |  |  |  |  |
| Cc1cccc(Cn2c3c(c4cc(O)ccc42)C(=O)c2ccccc2C3=O)c1 | > 100 µM | 40.9 µM | 8.63 µM | > 71 µM | > 100 µM | > 100 µM | > 100 µM | > 100 µM | > 100 µM |  |  |  |  |  |  |  |  |  |  |  |
| C[C@]12CC[C@H](O)CC1=CC[C@@H]1[C@@H]2CC[C@]2(C)C(=N/N)/C(=N\O)C[C@@H]12 | > 100 µM | > 100 µM | 30.5 µM | 75.7 µM | > 100 µM | > 100 µM | > 100 µM | > 100 µM |  | 11.8 µM |  |  |  |  |  |  |  |  |  |  |
| CCC(=O)NCC1CCCN2CCCCC12 (configuration not stated) | > 100 µM |  | > 100 µM |  | > 100 µM | > 100 µM | > 100 µM | > 100 µM | > 100 µM | > 100 µM |  |  |  |  |  |  |  |  |  |  |
| COc1ccc(CN2C(=O)/C(=C\c3cc(OC)c(OC)c(OC)c3)c3ccccc32)cc1 | > 100 µM | 4.98 µM | > 100 µM | 4.64 µM | 4.85 µM | > 100 µM |  | 3.57 µM | 4.09 µM | 7.3 µM | 3.04 µM | 2.42 µM | 4.08 µM | 1.72 µM | 2.15 µM | 2.51 µM | 1.89 µM | 2.08 µM | 1.96 µM |  |
| O=C(/C=C/c1ccc2c(c1)OCO2)c1ccc(O)cc1 | 29.1 µM | 66.1 µM | 75.7 µM | 30.2 µM | 26.3 µM | 50.7 µM |  |  | 28.6 µM | 28.8 µM |  |  |  |  |  |  |  |  |  |  |
| O=C(c1ccccn1)C1(N2CCCCC2)CCCCC1 | > 100 µM | > 100 µM |  | > 100 µM | > 100 µM | > 100 µM | > 100 µM | > 100 µM |  | 64.9 µM |  |  |  |  |  |  |  |  |  |  |
| O=c1[nH]c(=S)[nH]c2c1C(c1ccc([N+](=O)[O-])cc1)c1c([nH]c(=S)[nH]c1=O)O2 | > 100 µM | > 100 µM |  | > 100 µM | > 100 µM | > 100 µM | > 100 µM | > 100 µM | > 100 µM | > 100 µM |  |  |  |  |  |  |  |  |  |  |
| c1ccc2c3[nH]c(c2c1)=Nc1ccc(cc1)-c1nc2cc(ccc2o1)N=c1[nH]c(c2ccccc12)=Nc1ccc2nc(oc2c1)-c1ccc(cc1)N=3 | > 100 µM | > 100 µM |  | > 100 µM | > 100 µM |  | > 100 µM | > 100 µM | > 100 µM |  |  |  |  |  |  |  |  |  |  |  |
| COc1ccc(-c2[nH]c3c4c(nc5c(c24)C(=O)CC(C)(C)C5)CC(C)(C)C3)cc1 | > 100 µM | > 100 µM | > 100 µM |  | > 100 µM | > 100 µM | 94 µM | > 100 µM | > 100 µM | > 100 µM |  |  |  |  |  |  |  |  |  |  |
| N[C@@H](CCC(=O)NCP(=O)(O)O)C(=O)O | > 100 µM | > 100 µM |  | > 100 µM | > 100 µM | > 100 µM | > 100 µM | > 100 µM | > 100 µM |  |  |  |  |  |  |  |  |  |  |  |
| Cc1ccc(-c2cc(-c3ccco3)c(C#N)c(=S)n2C2OC(CO)C(O)C(O)C2O)cc1 (configuration not stated) | > 100 µM | 54.1 µM and > 100 µM | > 100 µM | 74.5 µM and > 100 µM | > 100 µM | 65.8 µM and > 100 µM | > 100 µM | 76.9 µM and > 100 µM | > 100 µM |  | 20.6 µM and > 100 µM | 6.31 µM and 28 µM |  | 21.4 µM and 47.1 µM |  | 21.5 µM and 50.7 µM |  |  |  | 7.35 µM and 18.7 µM |
| CCCCOC(=O)Nc1ccc(S(=O)(=O)Nc2ccccc2Cl)cc1 | 48.8 µM | 37.7 µM |  | 49 µM | 31.3 µM | > 100 µM | 51.5 µM | 62.9 µM | 40.1 µM | 30 µM |  |  |  |  |  |  |  |  |  |  |
| N#CC(NCc1cccc(CNC(C#N)c2ccccc2)c1)c1ccccc1 (configuration not stated) | > 100 µM | > 100 µM | 87.6 µM | 41.8 µM | 61.4 µM | > 100 µM | 39 µM | 56.6 µM |  | 89.8 µM |  |  |  |  |  |  |  |  |  |  |
| Nc1ncnc2c1[nH]c(=O)n2-c1ccccc1 | > 100 µM | > 100 µM |  | > 100 µM | > 100 µM | > 100 µM | > 100 µM |  | > 100 µM | > 100 µM |  |  |  |  |  |  |  |  |  |  |
| N#CC(Cc1ccccc1)N(CCC1=CCCCC1)C(c1ccccc1)c1ccccc1 (configuration not stated) |  | > 100 µM | > 100 µM | > 100 µM | > 100 µM | > 100 µM | > 100 µM | > 100 µM | > 100 µM | > 100 µM |  |  |  |  |  |  |  |  |  |  |
| O=C(Cc1ccc(O)c(O)c1)NCc1c[nH]c2ccccc12 |  | > 100 µM | > 100 µM |  | > 100 µM | > 100 µM | > 100 µM | > 100 µM | > 100 µM | > 100 µM |  |  |  |  |  |  |  |  |  |  |
| NS(=O)(=O)c1nnc(NC(=O)Nc2ccc(Cl)c(Cl)c2)s1 | 39.7 µM | 39.7 µM |  |  | > 100 µM | > 100 µM | 84.2 µM | 92 µM | 55.3 µM | 42.3 µM |  |  |  |  |  |  |  |  |  |  |
| Cc1cc(Nc2ccc(S(=O)(=O)O)c3cc(S(=O)(=O)O)cc(S(=O)(=O)O)c23)c2ccccc2n1 | > 100 µM | > 100 µM | > 100 µM | > 100 µM | > 100 µM | > 100 µM | > 100 µM | > 100 µM | > 100 µM |  |  |  |  |  |  |  |  |  |  |  |
| O=C(NCc1ccccc1)c1n[nH][nH]c1=O | > 100 µM | > 100 µM | > 100 µM | > 100 µM | > 100 µM | > 100 µM | > 100 µM | > 100 µM | > 100 µM |  |  |  |  |  |  |  |  |  |  |  |
| CC(=O)Nn1c(=S)[nH]c2ccccc21 | > 100 µM | > 100 µM |  | > 100 µM | > 100 µM | > 100 µM | > 100 µM | > 100 µM | > 100 µM | > 100 µM |  |  |  |  |  |  |  |  |  |  |
| CC1CN(C)c2ccccc2N=C1NN (configuration not stated) | > 100 µM | > 100 µM |  | > 100 µM | > 100 µM | > 100 µM | > 100 µM | > 100 µM | > 100 µM |  |  |  |  |  |  |  |  |  |  |  |
